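Following 48 hours of exposure in 96-well plates, responses at five concentrations were used to interpolate endpoints linearly. TGI: total growth inhibition.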
How the values were obtained:
Experiment in all cases: NCI tumour cell line growth inhibition, 48 h
OVCAR-3 ovarian = system: OVCAR-3 ovarian
SNB-75 CNS = system: SNB-75 CNS
HOP-62 NSCLC = system: HOP-62 NSCLC
HS 578T breast = system: HS 578T breast
MOLT-4 leukemia = system: MOLT-4 leukemia
ACHN renal = system: ACHN renal
U251 CNS = system: U251 CNS
A549 NSCLC = system: A549 NSCLC
HL-60(TB) leukemia = system: HL-60(TB) leukemia
PC-3 prostate = system: PC-3 prostate
BT-549 breast = system: BT-549 breast
UO-31 renal = system: UO-31 renal
DU-145 prostate = system: DU-145 prostate
K-562 leukemia = system: K-562 leukemia
OVCAR-5 ovarian = system: OVCAR-5 ovarian
OVCAR-8 ovarian = system: OVCAR-8 ovarian
CAKI-1 renal = system: CAKI-1 renal
SR leukemia = system: SR leukemia
A498 renal = system: A498 renal
HOP-92 NSCLC = system: HOP-92 NSCLC
HCC-2998 colon = system: HCC-2998 colon
UACC-257 melanoma = system: UACC-257 melanoma
TK-10 renal = system: TK-10 renal
UACC-62 melanoma = system: UACC-62 melanoma
MALME-3M melanoma = system: MALME-3M melanoma
RXF 393 renal = system: RXF 393 renal
OVCAR-4 ovarian = system: OVCAR-4 ovarian
SF-268 CNS = system: SF-268 CNS
HT29 colon = system: HT29 colon
KM12 colon = system: KM12 colon
MCF7 breast = system: MCF7 breast
SF-539 CNS = system: SF-539 CNS
SF-295 CNS = system: SF-295 CNS
HCT-116 colon = system: HCT-116 colon
T-47D breast = system: T-47D breast
NCI-H460 lung = system: NCI-H460 lung
SW-620 colon = system: SW-620 colon
786-0 renal = system: 786-0 renal
MDA-MB-231 breast = system: MDA-MB-231 breast
NCI-H23 lung = system: NCI-H23 lung
HCT-15 colon = system: HCT-15 colon
SN12C renal = system: SN12C renal
MDA-MB-435 = system: MDA-MB-435
CCRF-CEM leukemia = system: CCRF-CEM leukemia
IGROV1 ovarian = system: IGROV1 ovarian
SK-MEL-2 melanoma = system: SK-MEL-2 melanoma
LOX IMVI melanoma = system: LOX IMVI melanoma
MDA-N = system: MDA-N
SK-MEL-28 melanoma = system: SK-MEL-28 melanoma
NCI/ADR-RES ovarian = system: NCI/ADR-RES ovarian
SK-MEL-5 melanoma = system: SK-MEL-5 melanoma
EKVX NSCLC = system: EKVX NSCLC
M14 melanoma = system: M14 melanoma
RPMI-8226 leukemia = system: RPMI-8226 leukemia
SNB-19 CNS = system: SNB-19 CNS
COLO 205 colon = system: COLO 205 colon
NCI-H226 lung = system: NCI-H226 lung
NCI-H522 lung = system: NCI-H522 lung
SK-OV-3 ovarian = system: SK-OV-3 ovarian

`O=C(O)c1cc(C(=O)O)nc(C(=O)O)c1` was tested, and the TGI (OVCAR-3 ovarian) was greater than 100 µM, the TGI (SNB-75 CNS) was greater than 100 µM and the TGI (HOP-62 NSCLC) was greater than 100 µM. It also gave a TGI (HS 578T breast) greater than 100 µM, a TGI (MOLT-4 leukemia) greater than 100 µM and a TGI (ACHN renal) greater than 100 µM. For the same molecule, the TGI (U251 CNS) was greater than 100 µM, the TGI (A549 NSCLC) was greater than 100 µM and the TGI (HL-60(TB) leukemia) was greater than 100 µM. It also gave a TGI (PC-3 prostate) greater than 100 µM, a TGI (BT-549 breast) greater than 100 µM and a TGI (UO-31 renal) greater than 100 µM. For the same molecule, the TGI (DU-145 prostate) was greater than 100 µM, the TGI (K-562 leukemia) was greater than 100 µM and the TGI (OVCAR-5 ovarian) was greater than 100 µM. The TGI (OVCAR-8 ovarian) was greater than 100 µM, the TGI (CAKI-1 renal) was greater than 100 µM and the TGI (SR leukemia) was greater than 100 µM. It also gave a TGI (A498 renal) greater than 100 µM, a TGI (HOP-92 NSCLC) greater than 100 µM and a TGI (HCC-2998 colon) greater than 100 µM. It also gave a TGI (UACC-257 melanoma) greater than 100 µM, a TGI (TK-10 renal) greater than 100 µM and a TGI (UACC-62 melanoma) greater than 100 µM. For the same molecule, the TGI (MALME-3M melanoma) was greater than 100 µM, the TGI (RXF 393 renal) was greater than 100 µM and the TGI (OVCAR-4 ovarian) was greater than 100 µM. The TGI (SF-268 CNS) was greater than 100 µM, the TGI (HT29 colon) was greater than 100 µM and the TGI (KM12 colon) was greater than 100 µM. For the same molecule, the TGI (MCF7 breast) was greater than 100 µM, the TGI (SF-539 CNS) was greater than 100 µM and the TGI (SF-295 CNS) was greater than 100 µM. For the same molecule, the TGI (HCT-116 colon) was greater than 100 µM, the TGI (T-47D breast) was greater than 100 µM and the TGI (NCI-H460 lung) was greater than 100 µM. It also gave a TGI (SW-620 colon) greater than 100 µM, a TGI (786-0 renal) greater than 100 µM and a TGI (MDA-MB-231 breast) greater than 100 µM. It also gave a TGI (NCI-H23 lung) greater than 100 µM, a TGI (HCT-15 colon) greater than 100 µM and a TGI (SN12C renal) greater than 100 µM. The TGI (MDA-MB-435) was greater than 100 µM, the TGI (CCRF-CEM leukemia) was greater than 100 µM and the TGI (IGROV1 ovarian) was greater than 100 µM. For the same molecule, the TGI (SK-MEL-2 melanoma) was greater than 100 µM, the TGI (LOX IMVI melanoma) was greater than 100 µM and the TGI (MDA-N) was greater than 100 µM. It also gave a TGI (SK-MEL-28 melanoma) greater than 100 µM, a TGI (NCI/ADR-RES ovarian) greater than 100 µM and a TGI (SK-MEL-5 melanoma) greater than 100 µM. For the same molecule, the TGI (EKVX NSCLC) was greater than 100 µM, the TGI (M14 melanoma) was greater than 100 µM and the TGI (RPMI-8226 leukemia) was greater than 100 µM. It also gave a TGI (SNB-19 CNS) greater than 100 µM, a TGI (COLO 205 colon) greater than 100 µM and a TGI (NCI-H226 lung) greater than 100 µM. It also gave a TGI (NCI-H522 lung) greater than 100 µM and a TGI (SK-OV-3 ovarian) greater than 100 µM.

`C1CSCCCSCCCSCCCSCCCSC1` was tested, and the TGI (OVCAR-3 ovarian) was greater than 100 µM, the TGI (SNB-75 CNS) was greater than 93.2 µM and the TGI (HOP-62 NSCLC) was greater than 100 µM. It also gave a TGI (HS 578T breast) greater than 100 µM, a TGI (MOLT-4 leukemia) of 38.1 µM and a TGI (ACHN renal) greater than 100 µM. It also gave a TGI (U251 CNS) greater than 100 µM, a TGI (A549 NSCLC) greater than 100 µM and a TGI (HL-60(TB) leukemia) of 36.5 µM. The TGI (PC-3 prostate) was greater than 90.2 µM, the TGI (BT-549 breast) was greater than 88.5 µM and the TGI (UO-31 renal) was greater than 100 µM. For the same molecule, the TGI (DU-145 prostate) was greater than 100 µM, the TGI (K-562 leukemia) was greater than 80 µM and the TGI (OVCAR-5 ovarian) was greater than 100 µM. The TGI (OVCAR-8 ovarian) was greater than 100 µM, the TGI (CAKI-1 renal) was 48.8 µM and the TGI (SR leukemia) was 29.5 µM. For the same molecule, the TGI (A498 renal) was greater than 78.1 µM, the TGI (HOP-92 NSCLC) was greater than 93.4 µM and the TGI (HCC-2998 colon) was greater than 100 µM. The TGI (UACC-257 melanoma) was 97.2 µM, the TGI (TK-10 renal) was greater than 100 µM and the TGI (UACC-62 melanoma) was greater than 100 µM. For the same molecule, the TGI (MALME-3M melanoma) was greater than 100 µM, the TGI (RXF 393 renal) was greater than 100 µM and the TGI (OVCAR-4 ovarian) was greater than 100 µM. For the same molecule, the TGI (SF-268 CNS) was greater than 100 µM, the TGI (HT29 colon) was greater than 63.2 µM and the TGI (KM12 colon) was greater than 100 µM. It also gave a TGI (MCF7 breast) greater than 76.7 µM, a TGI (SF-539 CNS) greater than 100 µM and a TGI (SF-295 CNS) greater than 100 µM. The TGI (HCT-116 colon) was greater than 100 µM, the TGI (T-47D breast) was greater than 88.6 µM and the TGI (NCI-H460 lung) was greater than 51.4 µM. It also gave a TGI (SW-620 colon) greater than 100 µM, a TGI (786-0 renal) greater than 100 µM and a TGI (MDA-MB-231 breast) greater than 88.4 µM. For the same molecule, the TGI (NCI-H23 lung) was greater than 100 µM, the TGI (HCT-15 colon) was greater than 100 µM and the TGI (SN12C renal) was greater than 100 µM. For the same molecule, the TGI (MDA-MB-435) was greater than 100 µM, the TGI (CCRF-CEM leukemia) was 32.4 µM and the TGI (IGROV1 ovarian) was greater than 87.1 µM. It also gave a TGI (SK-MEL-2 melanoma) greater than 95.4 µM, a TGI (LOX IMVI melanoma) of 61.3 µM and a TGI (MDA-N) greater than 100 µM. For the same molecule, the TGI (SK-MEL-28 melanoma) was greater than 100 µM, the TGI (NCI/ADR-RES ovarian) was greater than 100 µM and the TGI (SK-MEL-5 melanoma) was 28.3 µM. The TGI (EKVX NSCLC) was greater than 100 µM, the TGI (M14 melanoma) was greater than 100 µM and the TGI (RPMI-8226 leukemia) was 36.9 µM. The TGI (SNB-19 CNS) was greater than 100 µM, the TGI (COLO 205 colon) was 34.5 µM and the TGI (NCI-H226 lung) was greater than 77.2 µM. For the same molecule, the TGI (NCI-H522 lung) was 81.2 µM and the TGI (SK-OV-3 ovarian) was greater than 100 µM.

From PubChem BioAssay (NCI)
